From US10189839B2, “Tricyclic imidazole compounds as inhibitors of tryptophan hydroxylase” (ACTELION PHARMACEUTICALS LTD, priority 2013, dated 2019)

What follows are compounds tested against T1, full length human TPH1 (Homo sapiens, UniProt P17752) (assay: Biochemical in vitro assay using fluorescence readout (TPH1 enzyme activity)). Conditions: Table 1, mean where determined several times.
T1 construct: To generate the enzyme, full length human TPH1 is cloned into the plasmid pET20b(+); made in house; host or cells: E. coli
T1 sequence (P17752 1-444): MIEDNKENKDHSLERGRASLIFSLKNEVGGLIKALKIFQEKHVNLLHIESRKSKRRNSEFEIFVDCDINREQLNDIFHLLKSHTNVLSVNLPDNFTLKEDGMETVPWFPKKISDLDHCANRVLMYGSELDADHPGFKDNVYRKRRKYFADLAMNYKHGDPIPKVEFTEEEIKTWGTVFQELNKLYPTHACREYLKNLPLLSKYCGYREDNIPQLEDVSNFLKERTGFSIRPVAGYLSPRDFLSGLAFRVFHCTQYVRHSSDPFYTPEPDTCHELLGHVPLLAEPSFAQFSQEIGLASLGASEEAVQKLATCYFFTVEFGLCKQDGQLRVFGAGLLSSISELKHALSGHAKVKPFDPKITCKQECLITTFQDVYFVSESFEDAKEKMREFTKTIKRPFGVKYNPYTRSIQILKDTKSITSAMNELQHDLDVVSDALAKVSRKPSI
Outline: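 E. coli-expressed full-length human TPH1 (40-80 nM), affinity- and size-exclusion-purified, incubated 60 min at 15° C. in 0.1M Tris-HCl pH 7.6 with 1 mM DTT, 0.2 mg/ml catalase, 100 μM 6-methyltetrahydropterine and 40 μM L-tryptophan. 5-Hydroxy-L-tryptophan read by fluorescence (ex 300/em 540 nm) after HClO4 quench; IC50 versus vehicle, mean where repeated.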

Row | IC50 [nM] | Compound
1 | 4 | O=C(COc1ccc(N2CCOCC2)nc1Cl)N1CCc2nc3n(c2C1c1ccc(Cl)cc1F)CCOC3 (stereo not drawn) [Example 6.1.1, 1-(6-(4-chloro-2-fluorophenyl)-3,4,8,9-tetrahydro-1 H-pyrido[4′,3′:4,5]imidazo[2,1-c][1,4]oxazin-7(6H)-yl)-2-((2-chloro-6-morpholinopyridin-3-yl)oxy)ethanone]
2 | 13 | CCc1nc(NS(C)(=O)=O)ccc1OCC(=O)N1CCc2nc3n(c2C1c1ccc(Cl)cc1F)CCC3 (stereo not drawn) [Example 2.1.2, N-(5-(2-(1-(4-chloro-2-fluorophenyl)-3,4,7,8-tetrahydro-1H-pyrrolo[2′,1′:2,3]imidazo[4,5-c]pyridin-2(6H)-yl)-2-oxoethoxy)-6-ethylpyridin-2-yl)methanesulfonamide]
3 | 19 | CCc1nc(NS(C)(=O)=O)ccc1OCC(=O)N1CCc2nc3n(c2C1c1sccc1F)CCS3 (stereo not drawn) [Example 4.6.3, N-(6-ethyl-5-(2-(5-(3-fluorothiophen-2-yl)-2,3,7,8-tetrahydrothiazolo[2′,3′:2,3]imidazo[4,5-c]pyridin-6(5H)-yl)-2-oxoethoxy)pyridin-2-yl)methanesulfonamide]
4 | 12 | CCc1nc(N2CCCS2(=O)=O)ccc1OCC(=O)N1CCc2nc3n(c2C1c1ccc(Cl)cc1F)CCS3 (stereo not drawn) [Example 4.1.6, 1-(5-(4-chloro-2-fluorophenyl)-2,3,7,8-tetrahydrothiazolo[2′,3′:2,3]imidazo[4,5-c]pyridin-6(5H)-yl)-2-((6-(1,1-dioxidoisothiazolidin-2-yl)-2-ethylpyridin-3-yl)oxy)ethanone]
5 | 31 | CCc1nc(C(=O)NC2CC2)ccc1OCC(=O)N1CCc2nc3n(c2C1c1ccc(Cl)cc1F)CCS3 (stereo not drawn) [Example 4.1.9, 5-(2-(5-(4-chloro-2-fluorophenyl)-2,3,7,8-tetrahydrothiazolo[2′,3′:2,3]imidazo[4,5-c]pyridin-6(5H)-yl)-2-oxoethoxy)-N-cyclopropyl-6-ethylpicolinamide]
6 | 67 | CCc1nc(NS(C)(=O)=O)ncc1OCC(=O)N1CCc2nc3n(c2C1c1ccc(Cl)cc1F)CCS3 (stereo not drawn) [Example 4.1.10, N-(5-(2-(5-(4-chloro-2-fluorophenyl)-2,3,7,8-tetrahydrothiazolo[2′,3′:2,3]imidazo[4,5-c]pyridin-6(5H)-yl)-2-oxoethoxy)-4-ethylpyrimidin-2-yl)methanesulfonamide]
7 | 121 | CC(C)(C)OC(=O)N1CCn2c(nc3c2C(c2ccc(C4CC4)cc2F)N(C(=O)COc2ccc(N4CCOCC4)cc2Cl)CC3)C1 (stereo not drawn) [Example 5.2.2, tert-butyl 2-(2-(2-chloro-4-morpholinophenoxy)acetyl)-1-(4-cyclopropyl-2-fluorophenyl)-1,2,3,4,8,9-hexahydropyrido[4′,3′:4,5]imidazo[1,2-a]pyrazine-7(6H)-carboxylate]
8 | 51 | CC(=O)N1CCn2c(nc3c2C(c2ncc(C)cc2F)N(C(=O)COc2ccc(N4CC(F)(F)C4)nc2Cl)CC3)C1 (stereo not drawn) [Example 5.8.2, 1-(7-acetyl-1-(3-fluoro-5-methylpyridin-2-yl)-3,4,6,7,8,9-hexahydropyrido[4′,3′:4,5]imidazo[1,2-a]pyrazin-2(1H)-yl)-2-((2-chloro-6-(3,3-difluoroazetidin-1-yl)pyridin-3-yl)oxy)ethanone]

More lines, now with the values behind:

Row | Compound | IC50 [nM]
9 | CN(C(=O)c1ccc(OCC(=O)N2CCc3nc4n(c3C2c2ccc(Cl)cc2F)CCCC4)c(Cl)n1)C1CC1 (stereo not drawn) [Example 1.1.4, 6-chloro-5-(2-(1-(4-chloro-2-fluorophenyl)-3,4,6,7,8,9-hexahydroimidazo[1,2-a:5,4-c′]dipyridin-2(1H)-yl)-2-oxoethoxy)-N-cyclopropyl-N-methylpicolinamide] | 29
10 | Cc1nc(C)c(C2c3c(nc4n3CCCC4)CCN2C(=O)COc2ccc(NS(C)(=O)=O)nc2Cl)s1 (stereo not drawn) [Example 1.10.1, N-(6-chloro-5-(2-(1-(2,4-dimethylthiazol-5-yl)-3,4,6,7,8,9-hexahydroimidazo[1,2-a:5,4-c′]dipyridin-2(1H)-yl)-2-oxoethoxy)pyridin-2-yl)methanesulfonamide] | 12
11 | CCc1nc(N2CCCS2(=O)=O)ccc1OCC(=O)N1CCc2nc3n(c2C1c1sc(C)nc1C)CCCC3 (stereo not drawn) [Example 1.10.19, 1-(1-(2,4-dimethylthiazol-5-yl)-3,4,6,7,8,9-hexahydroimidazo[1,2-a:5,4-c′]dipyridin-2(1H)-yl)-2-((6-(1,1-dioxidoisothiazolidin-2-yl)-2-ethylpyridin-3-yl)oxy)ethan-1-one] | 11
12 | Cc1cnc(C2c3c(nc4n3CCCC4)CCN2C(=O)COc2ccc(NS(C)(=O)=O)nc2Cl)c(F)c1 (stereo not drawn) [Example 1.6.1, N-(6-chloro-5-(2-(1-(3-fluoro-5-methylpyridin-2-yl)-3,4,6,7,8,9-hexahydroimidazo[1,2-a:5,4-c′]dipyridin-2(1H)-yl)-2-oxoethoxy)pyridin-2-yl)methanesulfonamide] | 58
13 | CN(c1ccc(OCC(=O)N2CCc3nc4n(c3C2c2ccc(Cl)cc2F)CCCC4)c(Cl)n1)S(C)(=O)=O (stereo not drawn) [Example 1.1.9, N-(6-chloro-5-(2-(1-(4-chloro-2-fluorophenyl)-3,4,6,7,8,9-hexahydroimidazo[1,2-a:5,4-c′]dipyridin-2(1H)-yl)-2-oxoethoxy)pyridin-2-yl)-N-methylmethanesulfonamide] | 25
14 | CN(C)C(=O)c1ccc(OC(C)(C)C(=O)N2CCc3nc4n(c3C2c2ccc(Cl)cc2F)CCCC4)c(Cl)n1 (stereo not drawn) [Example 1.1.25, 6-chloro-5-((1-(1-(4-chloro-2-fluorophenyl)-3,4,6,7,8,9-hexahydroimidazo[1,2-a:5,4-c′]dipyridin-2(1H)-yl)-2-methyl-1-oxopropan-2-yl)oxy)-N,N-dimethylpicolinamide] | 146
15 | O=C(NC1CC1)c1ccc(OCC(=O)N2CCc3nc4n(c3C2c2ccc(Cl)cc2F)CCCC4)c(Cl)n1 (stereo not drawn) [Example 1.1.6, 6-chloro-5-(2-(1-(4-chloro-2-fluorophenyl)-3,4,6,7,8,9-hexahydroimidazo[1,2-a:5,4-c′]dipyridin-2(1H)-yl)-2-oxoethoxy)-N-cyclopropylpicolinamide] | 19
16 | CNC(=O)c1ccc(OCC(=O)N2CCc3nc4n(c3C2c2sc(C)nc2C)CCCC4)c(Cl)n1 (stereo not drawn) [Example 1.10.4, 6-chloro-5-(2-(1-(2,4-dimethylthiazol-5-yl)-3,4,6,7,8,9-hexahydroimidazo[1,2-a:5,4-c′]dipyridin-2(1H)-yl)-2-oxoethoxy)-N-methylpicolinamide] | 36
17 | CCOC(=O)c1csc(C2c3c(nc4n3CCCC4)CCN2C(=O)COc2ccc(NS(C)(=O)=O)nc2Cl)n1 (stereo not drawn) [Example 1.5.1, Ethyl 2-(2-(2-((2-chloro-6-(methylsulfonamido)pyridin-3-yl)oxy)acetyl)-1,2,3,4,6,7,8,9-octahydroimidazo[1,2-a:5,4-c′]dipyridin-1-yl)thiazole-4-carboxylate] | 558
18 | Cc1nc(C)c(C2c3c(nc4n3CCCC4)CCN2C(=O)COc2ccc(C(=O)N(C)C3CC3)nc2Cl)s1 (stereo not drawn) [Example 1.10.2, 6-chloro-N-cyclopropyl-5-(2-(1-(2,4-dimethylthiazol-5-yl)-3,4,6,7,8,9-hexahydroimidazo[1,2-a:5,4-c′]dipyridin-2(1H)-yl)-2-oxoethoxy)-N-methylpicolinamide] | 82
19 | CCc1nc(N2CCCS2(=O)=O)ccc1OCC(=O)N1CCc2nc3n(c2C1c1scnc1C)CCCC3 (stereo not drawn) [Example 1.13.2, 2-((6-(1,1-dioxidoisothiazoli132din-2-yl)-2-ethylpyridin-3-yl)oxy)-1-(1-(4-methylthiazol-5-yl)-3,4,6,7,8,9-hexahydroimidazo[1,2-a:5,4-c′]dipyridin-2(1H)-yl)ethanone] | 15
20 | CCc1nc(C(=O)NC2CC2)ccc1OCC(=O)N1CCc2nc3n(c2C1c1sccc1F)CCCC3 (stereo not drawn) [Example 1.14.2, N-cyclopropyl-6-ethyl-5-(2-(1-(3-fluorothiophen-2-yl)-3,4,6,7,8,9-hexahydroimidazo[1,2-a:5,4-c′]dipyridin-2(1H)-yl)-2-oxoethoxy)picolinamide] | 12
21 | Cc1nc(C)c(C2c3c(nc4n3CCCC4)CCN2C(=O)COc2ccc(C#N)cc2Cl)s1 (stereo not drawn) [Example 1.10.10, 3-chloro-4-(2-(1-(2,4-dimethylthiazol-5-yl)-3,4,6,7,8,9-hexahydroimidazo[1,2-a:5,4-c′]dipyridin-2(1H)-yl)-2-oxoethoxy)benzonitrile] | 207

Same assay, conditions: Table 2

Row | IC50 [nM] | Compound
22 | 15 | CN(CCO)c1ccc(OCC(=O)N2CCc3nc4n(c3C2c2ccc(Cl)cc2F)CCCC4)c(Cl)n1 (stereo not drawn) [Example 1.1.27]
23 | 35 | CC(=O)N1CCn2c(nc3c2C(c2cc(C(=O)N(C)C)cs2)N(C(=O)COc2ccc(N4CCOCC4)nc2Cl)CC3)C1 (stereo not drawn) [Example 5.3.2, 5-(7-Acetyl-2-(2-((2-chloro-6-morpholinopyridin-3-yl)oxy)acetyl)-1,2,3,4,6,7,8,9-octahydropyrido[4′,3′:4,5]imidazo[1,2-a]pyrazin-1-yl)-N,N-dimethylthiophene-3-carboxamide]
24 | 94 | CN(C)C(=O)c1csc(C2c3c(nc4n3CCNC4)CCN2C(=O)COc2ccc(N3CCOCC3)nc2Cl)c1 (stereo not drawn) [Example 5.3.1, 5-(2-(2-((2-Chloro-6-morpholinopyridin-3-yl)oxy)acetyl)-1,2,3,4,6,7,8,9-octahydropyrido[4′,3′:4,5]imidazo[1,2-a]pyrazin-1-yl)-N,N-dimethylthiophene-3-carboxamide]
